Measured values: patent publication US20120022143A1, “RNA Interference Mediated Inhibition of the Thymic Stromal Lymphopoietin (TSLP) Gene Expression Using Short Interfering Nucliec Acid (siNA)” (Merck Sharp & Dohme Corp, priority 2009, published 2012)
[invAb] = inverted abasic unit; d = 2'-deoxy (DNA); m = 2'-O-methyl; r = 2'-OH (RNA); f = 2'-fluoro

Legend:
mTSLP mRNA = assay: Initial screening: mouse TSLP mRNA knock-down by RT-PCR (Taqman) after RNAiMax transfection of NIH 3T3 cells; format: cell-based; settings: 10 nM siNA, 24 hrs post-transfection, mean ± s.d., summary from 2 screens
TSLP mRNA [1] = assay: Dose response curves of TSLP mRNA knock-down in NHLF cells; format: cell-based; settings: human NHLF cells, mean ± s.d.; for IC50: TSLP mRNA knock-down, 12 concentrations from 0.083 fM to 30 nM; for Maximum % KD in DRC: 12 concentrations of siNA from 0.083 fM to 30 nM
Procedure: NHLF (human; Lonza cat# CC-2512): Cells were cultured at 37° C. in the presence of 5% CO2 and grown Fibroblast Basal Medium (Lonza cat# CC-3β2) supplemented growth factors (provided with the kit) and 100 μg/mL of streptomycin and 100 U/mL penicillin.
Dose response curves were carried out in a similar fashion in 96-well plates, while maintaining a constant amount of RNAiMax in each transfection.
RNA was extracted from a 96-well plate using the TaqMan® Gene Expression Cells-to-CT™ Kit (Cat# 4399002) with a modified protocol. Briefly, a 60 uL (1 plate) or 110 uL (2 plates) of the Lysis Solution with DNase I was dispensed into each well of the Lysis Buffer Plate (twin.tec full skirt plate). The lysis buffer and stop plates were stored at 4° C. until the cells were washed.
Each well of the reverse transcription plate required 10 uL of 2× reverse transcriptase Buffer, luL of 20× reverse transcription enzyme and 2 uL of nuclease-free water. The reverse transcription master mix was prepared by mixing 2× reverse transcription buffer, 20× reverse transcription enzyme mix, and nuclease-free water. 13 uL of the reverse transcription master mix was dispensed into each well of the reverse transcription plate (semi-skirted). A separate reverse transcription plate was prepared for each cell plate. The plate was loaded onto a Biomek NX or Biomek FX Dual-96 and the Biomek method was run. The program is programmed to automatically added 7 uL of lysate from the cell lysis procedure described above into each well of the reverse transcription plate. The plate is sealed and spun on a centrifuge (1000 rpm for 30 seconds) to settle the contents to the bottom of the reverse transcription plate. The plate is placed in a thermocycler at 37° C. for 60 min, 95° C. for 5 min, and 4° C. until the plate is removed from the thermocycler. Upon removal, if not used immediately, the plate was frozen at −20° C.
A series of probes and primers were used to detect the various mRNA transcripts of the genes of TSLP, IL-8 and GAPDH in human cell lines. All the Taqman probes and primers for the experiments here-in described were supplied as pre-validated sets by Applied Biosystems, Inc. (see Table 2). The assays were performed on an ABI 7900 instrument, according to the manufacturer's instructions.
A TaqMan Gene Expression Master Mix (provided in the Cells-to-CT™, Applied Biosystems, Cat #4399002) was used. The PCR reactions were carried out at 50° C. for 2 min, 95° C. for 20 min followed by 40 cycles at 95° C. for 15 secs and 60° C. for 1 min.
The expression level of the gene of interest and % knock-down was calculated using Comparative Ct method: […]
All calculations of IC50s were performed using SigmaPlot 10.0 software. The data were analyzed using the sigmoidal dose-response (variable slope) equation for simple ligand binding. In all of the calculations of the % knock-down, the calculation was made relative to the normalized level of expression of the gene of interest in the samples treated with the non-targeting control (Ctrl siNA) unless otherwise indicated.
Summary data, as to potency and efficacy for TSLP mRNA knock-down in human cells for certain siNA molecules, is presented in Table 5. Cells for the experiments were treated with 12 concentrations of siNA ranging from 0.083 fM to 30 nM. All of the data is presented as % knockdown of TSLP normalized against the expression of GAPDH mRNA expression level. Then the data was determined as a % knockdown relative to the non-targeting control siNA.

TSLP mRNA [2] = assay: Initial screening: TSLP mRNA knock-down by RT-PCR (Taqman) after RNAiMax transfection of NHLF cells; format: cell-based; settings: 10 nM siNA, human NHLF cells; for % KD TSLP: 24 hrs post-transfection, relative to non-targeting control, normalized to GAPDH, mean ± s.d. from 2 experiments; for % KD TSLP (10 nM): mean ± s.d. (Table 5)
TSLP protein = assay: TSLP ELISA in IL-1β/TNFα-stimulated NHLF cells; format: cell-based, human; settings: relative to UC3 siRNA at matched concentration, siNA range 10 nM-0.00015 nM, concentration of the value not stated, mean ± s.d.
Procedure: In a 96-well plate, 57,500 NHLFcells/well were seeded in 100 uL of complete growth media and incubated overnight at 37° C. with 5% CO2. The cells were transfected with siNAs using RNAiMax (Invitrogen, Cat#13778-150); final concentration of siNAs is 10 nM-0.00015 nM. The amount of RNAiMax in each well is 0.3 uL. The siNAs were incubated for 6 hours. The medium was replaced with 95 uL of fresh complete growth medium and 5 uL/well of IL-1β/TNFα at 10 ng/ml final concentration was added. The cells were incubated for 24 hours. 95 uL of the medium from each well was collected into a separate 96-well plate. The samples were frozen immediately at −80° C. until ready the assay was ready to be performed.
ELISA was performed using DuoSet ELISA Development System (R&D systems, Cat # DY1398) according to the manufacturer's instructions. A seven point standard curve using 2-fold serial dilution in reagent diluent buffer and a high standard of 1000 pg/ml was used. The samples were not diluted. Absorbance was obtained at […] (LM1) and […] (LM2) and the difference (LM1-LM2) was recorded on a SpectraMax plate reader (Molecular Devices) within 30 minutes of stopping the reaction.
Various siNAs were also evaluated for their potential to knock-down TSLP protein using an ELISA assay. Six siNAs were tested in an TSLP ELISA assay across a range of concentrations of siNAs and the level of reduction of protein was determined relative to treatment of the cells with identical concentrations of the negative universal control siNA (UC3) (see Table 6).

Row | Substance | % KD mTSLP NIH3T3 (mTSLP mRNA) | IC50 (TSLP mRNA [1]) | Maximum % KD in DRC (TSLP mRNA [1]) | % KD TSLP (TSLP mRNA [2]) | % KD TSLP (10 nM) (TSLP mRNA [2]) | % Reduction TSLP Protein (TSLP protein)
1 | 25434-DC: siNA duplex: sense B GuGGuAuAuAcAAGuAGAu TTB (SEQ ID NO: 51), antisense AUCuAcuuGuAuAuAccAcUU (SEQ ID NO: 52) (sense GUGGUAUAUACAAGUAGAUTT; antisense AUCUACUUGUAUAUACCACUU; sense: DNA at AGT, 2'-fluoro at CU, [invAb] at 5' end, 3' end, backbone not given here; antisense: sugars from the 5' end rrrfmfffmfmfmfmffmfmm, backbone not given here) | 12.6 ± 6.5% | 6.7 ± 2.5 pM | 79 ± 3% | 85 ± 7.6% | 85 ± 7.6% | 82.1 ± 11.8%
2 | 25438-DC: siNA duplex: sense B GAAGcAAuuuGAAAuAAuu TTB (SEQ ID NO: 59), antisense AAUuAuuucAAAuuGcuucUU (SEQ ID NO: 60) (sense GAAGCAAUUUGAAAUAAUUTT; antisense AAUUAUUUCAAAUUGCUUCUU; sense: DNA at AGT, 2'-fluoro at CU, [invAb] at 5' end, 3' end, backbone not given here; antisense: sugars from the 5' end rrrfmffffmmmffmffffmm, backbone not given here) | 9.8 ± 12.2% | 4.1 ± 1.2 pM | 79 ± 4% | 85 ± 6.8% | 85 ± 6.8% | 51.9 ± 14.1%
3 | 25450-DC: siNA duplex: sense B AuuuuGuGAAcAcuuuuGA TTB (SEQ ID NO: 83), antisense UCAAAAGuGuucAcAAAAuUU (SEQ ID NO: 84) (sense AUUUUGUGAACACUUUUGATT; antisense UCAAAAGUGUUCACAAAAUUU; sense: DNA at AGT, 2'-fluoro at CU, [invAb] at 5' end, 3' end, backbone not given here; antisense: sugars from the 5' end rrrmmmmfmfffmfmmmmfmm, backbone not given here) | 8.8 ± 11% | 1.5 ± 0.3 pM | 75 ± 2% | 82 ± 9.8% | 82 ± 9.8% | 44 ± 27.9%
4 | 25436-DC: siNA duplex: sense B GccAAGuuuuAAAuAuuAu TTB (SEQ ID NO: 55), antisense AUAAuAuuuAAAAcuuGGcUU (SEQ ID NO: 56) (sense GCCAAGUUUUAAAUAUUAUTT; antisense AUAAUAUUUAAAACUUGGCUU; sense: DNA at AGT, 2'-fluoro at CU, [invAb] at 5' end, 3' end, backbone not given here; antisense: sugars from the 5' end rrrmfmfffmmmmfffmmfmm, backbone not given here) | 19.3 ± 6.1% | 4.1 ± 1.6 pM | 86 ± 3% | 90 ± 5.1% | 90 ± 5.1% | 71.7 ± 20.3%
5 | 25449-DC: siNA duplex: sense B AGAAGAGuuucuuAAcuuA TTB (SEQ ID NO: 81), antisense UAAGuuAAGAAAcucuucuUU (SEQ ID NO: 82) (sense AGAAGAGUUUCUUAACUUATT; antisense UAAGUUAAGAAACUCUUCUUU; sense: sugars from the 5' end d7 f6 d2 f3 d3, [invAb] at 5' end, 3' end, backbone not given here; antisense: sugars from the 5' end rrrmffmmmmmmfffffffmm, backbone not given here) | 52.9 ± 11.8% | 10.2 ± 3.1 pM | 82 ± 1% | 84 ± 2.1% | 84 ± 2.1% | 45 ± 23.2%
6 | 25471-DC: siNA duplex: sense B AGuAGAAAAAAAAAuuAAA TTB (SEQ ID NO: 125), antisense UUUAAuuuuuuuuucuAcuUU (SEQ ID NO: 126) (sense AGUAGAAAAAAAAAUUAAATT; antisense UUUAAUUUUUUUUUCUACUUU; sense: sugars from the 5' end d2 f1 d11 f2 d5, [invAb] at 5' end, 3' end, backbone not given here; antisense: sugars from the 5' end rrrmmfffffffffffmffmm, backbone not given here) | 6.1 ± 9.6% |  |  | 22 ± 17.1% |  | 
7 | 25443-DC: siNA duplex: sense B GAGGAAGcuuAcAuuAcAu TTB (SEQ ID NO: 69), antisense AUGuAAuGuAAGcuuccucUU (SEQ ID NO: 70) (sense GAGGAAGCUUACAUUACAUTT; antisense AUGUAAUGUAAGCUUCCUCUU; sense: DNA at AGT, 2'-fluoro at CU, [invAb] at 5' end, 3' end, backbone not given here; antisense: sugars from the 5' end rrrfmmfmfmmmfffffffmm, backbone not given here) | 16.7 ± 11.7% |  |  | 43 ± 12.1% |  | 
8 | 25446-DC: siNA duplex: sense B cAGAAGAGuuucuuAAcuu TTB (SEQ ID NO: 75), antisense AAGuuAAGAAAcucuucuGUU (SEQ ID NO: 76) (sense CAGAAGAGUUUCUUAACUUTT; antisense AAGUUAAGAAACUCUUCUGUU; sense: DNA at AGT, 2'-fluoro at CU, [invAb] at 5' end, 3' end, backbone not given here; antisense: sugars from the 5' end r3 f2 m6 f7 m3, backbone not given here) | −32.1 ± 18.3% | 9.1 ± 2.4 pM | 85 ± 2% | 84 ± 3.6% | 84 ± 3.6% | 64.7 ± 3.5%
